Literature values as cited in patent US20060024422A1, “Salt substitute compositions having N-neohexyl-a-aspartyl-l- phenylalanine methyl ester for modifying flavor and methods of manufacturing the same” (Cumberland Packing Corp., priority 2004, published 2006).

Conditions: on a weight basis

## COC(=O)[C@H](Cc1ccccc1)NC(=O)[C@H](CC(=O)O)NCCC(C)(C)C [neotame, N-[N-(3,3-dimethylbutyl)-L-α-aspartyl]-L-phenylalanine 1-methyl ester]
  Sweetness relative to sucrose: approximately 8,000 times
